The assay addresses T1, ENPP1 (Homo sapiens, UniProt P22413).
T1 sequence (P22413 1-925): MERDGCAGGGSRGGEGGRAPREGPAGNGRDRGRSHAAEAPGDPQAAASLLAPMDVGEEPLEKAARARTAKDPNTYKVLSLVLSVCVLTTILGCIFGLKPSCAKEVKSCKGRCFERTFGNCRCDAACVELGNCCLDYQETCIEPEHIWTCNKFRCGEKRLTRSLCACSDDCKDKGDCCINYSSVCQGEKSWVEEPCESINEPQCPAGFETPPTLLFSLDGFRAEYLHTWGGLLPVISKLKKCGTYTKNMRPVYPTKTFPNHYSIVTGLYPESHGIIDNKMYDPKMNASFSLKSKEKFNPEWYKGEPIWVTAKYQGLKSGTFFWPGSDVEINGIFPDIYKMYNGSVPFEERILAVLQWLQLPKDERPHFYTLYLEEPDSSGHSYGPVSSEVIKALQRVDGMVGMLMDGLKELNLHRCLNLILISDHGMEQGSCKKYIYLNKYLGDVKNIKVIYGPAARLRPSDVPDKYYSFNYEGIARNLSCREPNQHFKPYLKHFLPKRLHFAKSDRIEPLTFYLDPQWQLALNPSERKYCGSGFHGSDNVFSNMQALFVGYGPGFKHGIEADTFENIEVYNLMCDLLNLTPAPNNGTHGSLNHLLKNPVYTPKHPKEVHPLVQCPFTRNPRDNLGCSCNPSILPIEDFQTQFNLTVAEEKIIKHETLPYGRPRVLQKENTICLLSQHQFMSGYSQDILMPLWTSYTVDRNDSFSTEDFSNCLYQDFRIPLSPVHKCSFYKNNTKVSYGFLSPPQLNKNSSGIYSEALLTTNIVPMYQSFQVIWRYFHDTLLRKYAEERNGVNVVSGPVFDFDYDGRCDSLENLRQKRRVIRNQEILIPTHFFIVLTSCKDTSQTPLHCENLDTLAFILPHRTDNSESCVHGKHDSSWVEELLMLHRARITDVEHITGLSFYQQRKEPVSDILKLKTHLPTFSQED
Kind of assay: ENPP1 enzymatic assay, cGAMP hydrolysis. It counts as biochemical.

pIC50: −log10 of the molar value.

What is called pIC50 is the IC50 on a negative log10 scale, so that one unit is a factor of ten. Read a high pIC50 as a small IC50.

Substance QS1 gave a pIC50 of 6.85.

These data come from paper PMC12102218 (Nature Communications, 2025).
